The source of these data is PubChem BioAssay AID1963436 (Molecular Pharmacology Branch, DTP, NCI, 2024).

The subject of this experiment is OVCAR-5 complex spheroid (HUVEC/MSC), viability % T/C. The experiment is described as follows: Anticancer human tumor OVCAR-5 cell line growth inhibition [Asc].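 On all read-outs here: spheroids exposed to agents for 7 days before readout.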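 On viability, T/C: 100% = DMSO vehicle-treated wells.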 The note with it: for viability, T/C: stronger effect = lower value. How it is done:
Multicellular complex tumor spheroid response to apoptosis pathway targeting inhibitors Alrizomadlin, Pelcitoclax, and Dasminapant in combination with a variety of drugs and investigational agents in selected tumor cell lines
The MDM2 inhibitor alrizomadlin, the Bcl-2/Bcl-xL inhibitor pelcitoclax, and the IAPs inhibitor dasminapant were evaluated both individually and in combination with standard of care and investigational anticancer small molecules within a complex spheroid model of solid tumors. . Complex spheroids include a stromal component modeled by human endothelial cells (HUVEC) and fibroblasts modeled by human mesenchymal stem cells (MSCs). The concentration ranges selected for each drug and investigational agent were based upon clinically achievable concentrations if the clinical Cmax of the agent was known.
Compounds. The drugs and investigational agents: alrizomadlin (APG-115; NSC831270), pelcitoclax (APG-1252; NSC835773), dasminapant (APG-1387;NSC834197), TAK-243 (NSC785004), copanlisib (NSC809693), olaparib (NSC753686), talazoparib (NSC767125), cobimetinib (NSC 768068), eltanexor (KPT-8602, NSC 794443), abemaciclib (NSC 768073), sotorasib (NSC818433), adagrasib (NSC 831453), MRTX-1133 (NSC 836407), Iadademestat (ORY1001, NSC 806812), and RMC-4630 (NSC839698), were obtained from the NCI Developmental Therapeutics Program Chemical Repository. The FDA-approved anticancer drug set is available from the Developmental Therapeutics Program at https://dtp.cancer.gov/organization/dscb/obtaining/available plates.htm. […] The stock solutions were prepared in dimethyl sulfoxide (DMSO, Sigma-Aldrich, St. Louis, MO, cat. D2650) at 800-fold the tested concentration and stored at -70 degrees C prior to their use. All drugs and investigational agents were tested over a range starting from a high concentration at or near the clinical Cmax and decreasing in half-log increments. If the clinical Cmax for an agent had not been determined, the highest concentration tested was 10 microM.
The patient-derived cancer (PDC) cell lines include five colon adenocarcinomas: 186277-243-T-J2-PDC, 616215-338-R-J1-PDC, 439559-082-T-J2-PDC, 463943-066-T-J2-PDC, and 519858-162-T-J1-PDC; three pancreatic carcinomas: 323965-272-R-J2-PDC, 521955-158-R6-J3-PDC, and 521955-158-R2-J5-PDC; two uterine sarcomas: 327498-152-R-J2-PDC and 993429-296-R-J1-PDC; two rhabdomyosarcomas: 755483-174-R-J1-PDC and 772245-204-R-J1-PDC; two soft tissue sarcomas: 126254-015-R-J1-PDC and 494315-158-R-J1-PDC; two malignant fibrous histiocytomas: 317291-083-R-J1-PDC and 596521-263-R-J1-PDC; two breast carcinomas: 171881-019-R-J1-PDC and 885512-296-R-J2-PDC; and one ovarian carcinoma: 6556581-035-R-J-PDC were obtained from the NCI PDMR, (https://pdmr.cancer.gov). The established cell lines HSSY-2 synovial sarcoma (RRID:CVCL 8719), SYO-1 synovial sarcoma (RRID:CVCL_7146), MPNST malignant peripheral neural sheath tumor were obtained from the Sloan Kettering Institute. The following established cell lines were purchased from the American Type Culture Collection (ATCC, Manassas, VA), Sor the received from the NCI repository:, PANC-1 pancreatic carcinoma (CRL-1469, RRID:CVCL_0480), OVCAR-5 ovarian carcinoma (RRID:CVCL_1628), OVCAR-8 ovarian carcinoma (RRID:CVCL_1629), , MCF-7 breast carcinoma (CRL-12584, RRID:CVCL_0031), MDA-MB-231 breast carcinoma (CRL-12532, RRID:CVCL_0062), NCI-H1876 small cell lung carcinoma (CRL-5902, RRID:CVCL_1503), NCI-H510A small cell lung carcinoma (HTB-184, RRID:CVCL_1565), NCI-H1417 (CRL-5869, RRID:CVCL_1469), and NCI-H196 small cell lung carcinoma (CRL-5823, RRID:CVCL_1509). Dr. Peter Houghton (Greehey Children's Cancer Research Institute, University of Texas Health Science Center, San Antonio, TX) provided Rh-18 rhabdomyosarcoma (RRID:CVCL_1659). Pooled donor human umbilical vein endothelial cells (HUVEC, Lonza, cat. CC-2519) and human mesenchymal stem cells (hMSC, Lonza, cat. PT-2501) were purchased from Lonza (Walkersville, MD).
Cell Culture. […]

Values joined by “and” are separate entries in the source; they are usually repeats but may differ in a detail not shown here. Identical values can stand only once.

The term viability, T/C denotes the ratio of treated to control. For orientation: IC50 means the concentration that inhibits the measured activity by half.

Consider `COc1c(OCCCN2CCOCC2)ccc2c3n(c(=NC(=O)c4cnc(N)nc4)nc12)CCN3`, for which the viability, T/C is, setting by setting: (compound 0.00316 µM) 85% and 93% and 92.1%; (compound 0.01 µM) 76.2% and 90.5% and 80.5%; (compound 0.0316 µM) 49.5% and 55% and 55.8%; (compound 0.1 µM) 26.1% and 29.9% and 42%; (compound 0.316 µM) 20.3% and 21.6% and 24.1%; (compound 1 µM) 9.88% and 9.15% and 11.8%. In addition, under “curve of compound”, the IC50 was 32.4 nM and 43.9 nM and 55.3 nM.
For `NC(=O)C(=Cn1cnc(-c2cc(C(F)(F)F)cc(C(F)(F)F)c2)n1)c1cncnc1` + CNC(C)C(=O)NC1CN(S(=O)(=O)c2cccc(S(=O)(=O)N3CCC4CCC(C(=O)NC(c5ccccc5)c5ccccc5)N4C(=O)C(NC(=O)C(C)NC)C3)c2)CCC2CCC(C(=O)NC(c3ccccc3)c3ccccc3)N2C1=O, the IC50 stood at 222 nM (curve of first compound, second compound 0.01 µM); 147 nM (curve of first compound, second compound 0.0316 µM); 135 nM (curve of first compound, second compound 0.1 µM); 141 nM (curve of first compound, second compound 0.316 µM); 124 nM (curve of first compound, second compound 1 µM). In addition, the viability, T/C reads like this: (second compound 0.01 µM, first compound 0.000949 µM) 95.4%; (second compound 0.01 µM, first compound 0.003 µM) 95.5%; (second compound 0.01 µM, first compound 0.00949 µM) 91.4%; (second compound 0.01 µM, first compound 0.03 µM) 76.5%; (second compound 0.01 µM, first compound 0.0949 µM) 63%; (second compound 0.01 µM, first compound 0.3 µM) 45.5%. Also, the viability, T/C reads like this: (second compound 0.0316 µM, first compound 0.000949 µM) 96%; (second compound 0.0316 µM, first compound 0.003 µM) 89.2%; (second compound 0.0316 µM, first compound 0.00949 µM) 73.3%; (second compound 0.0316 µM, first compound 0.03 µM) 67.7%; (second compound 0.0316 µM, first compound 0.0949 µM) 60%; (second compound 0.0316 µM, first compound 0.3 µM) 39%. Also, the viability, T/C is, setting by setting: (second compound 0.1 µM, first compound 0.000949 µM) 86.6%; (second compound 0.1 µM, first compound 0.003 µM) 89.9%; (second compound 0.1 µM, first compound 0.00949 µM) 77.4%; (second compound 0.1 µM, first compound 0.03 µM) 66.3%; (second compound 0.1 µM, first compound 0.0949 µM) 57.2%; (second compound 0.1 µM, first compound 0.3 µM) 38%. The viability, T/C by setting is: (second compound 0.316 µM, first compound 0.000949 µM) 82.2%; (second compound 0.316 µM, first compound 0.003 µM) 84.1%; (second compound 0.316 µM, first compound 0.00949 µM) 69.4%; (second compound 0.316 µM, first compound 0.03 µM) 66.7%; (second compound 0.316 µM, first compound 0.0949 µM) 60%; (second compound 0.316 µM, first compound 0.3 µM) 37%. Besides, the viability, T/C (second compound 1 µM, first compound 0.000949 µM) was 85.7%; the viability, T/C (second compound 1 µM, first compound 0.003 µM) was 82.8%; the viability, T/C (second compound 1 µM, first compound 0.00949 µM) is 79.8%; the viability, T/C (second compound 1 µM, first compound 0.03 µM) was 70.6%; the viability, T/C (second compound 1 µM, first compound 0.0949 µM) is 54.9%; the viability, T/C (second compound 1 µM, first compound 0.3 µM) is 33.4%.
